According to publication PMC13586173, “Synthetic cannabinoid receptor agonists inhibit the cardiac voltage-gated potassium channel hERG” (Acta Pharmacologica Sinica, 2026):

Legend:
[1] = molecular target: KV7.1/KCNE1 (Homo sapiens, UniProt P51787); experiment: Automated patch-clamp (APC, population patch), CHO cells stably expressing human KV7.1/KCNE1; type: cell-based
[2] = molecular target: hERG (KV11.1) (Homo sapiens, UniProt Q12809); experiment: Automated planar patch-clamp (APC, QPatch II 48), voltage-ladder protocol, CHO cells stably expressing human hERG
Sequence of hERG (KV11.1) (Q12809 whole entry): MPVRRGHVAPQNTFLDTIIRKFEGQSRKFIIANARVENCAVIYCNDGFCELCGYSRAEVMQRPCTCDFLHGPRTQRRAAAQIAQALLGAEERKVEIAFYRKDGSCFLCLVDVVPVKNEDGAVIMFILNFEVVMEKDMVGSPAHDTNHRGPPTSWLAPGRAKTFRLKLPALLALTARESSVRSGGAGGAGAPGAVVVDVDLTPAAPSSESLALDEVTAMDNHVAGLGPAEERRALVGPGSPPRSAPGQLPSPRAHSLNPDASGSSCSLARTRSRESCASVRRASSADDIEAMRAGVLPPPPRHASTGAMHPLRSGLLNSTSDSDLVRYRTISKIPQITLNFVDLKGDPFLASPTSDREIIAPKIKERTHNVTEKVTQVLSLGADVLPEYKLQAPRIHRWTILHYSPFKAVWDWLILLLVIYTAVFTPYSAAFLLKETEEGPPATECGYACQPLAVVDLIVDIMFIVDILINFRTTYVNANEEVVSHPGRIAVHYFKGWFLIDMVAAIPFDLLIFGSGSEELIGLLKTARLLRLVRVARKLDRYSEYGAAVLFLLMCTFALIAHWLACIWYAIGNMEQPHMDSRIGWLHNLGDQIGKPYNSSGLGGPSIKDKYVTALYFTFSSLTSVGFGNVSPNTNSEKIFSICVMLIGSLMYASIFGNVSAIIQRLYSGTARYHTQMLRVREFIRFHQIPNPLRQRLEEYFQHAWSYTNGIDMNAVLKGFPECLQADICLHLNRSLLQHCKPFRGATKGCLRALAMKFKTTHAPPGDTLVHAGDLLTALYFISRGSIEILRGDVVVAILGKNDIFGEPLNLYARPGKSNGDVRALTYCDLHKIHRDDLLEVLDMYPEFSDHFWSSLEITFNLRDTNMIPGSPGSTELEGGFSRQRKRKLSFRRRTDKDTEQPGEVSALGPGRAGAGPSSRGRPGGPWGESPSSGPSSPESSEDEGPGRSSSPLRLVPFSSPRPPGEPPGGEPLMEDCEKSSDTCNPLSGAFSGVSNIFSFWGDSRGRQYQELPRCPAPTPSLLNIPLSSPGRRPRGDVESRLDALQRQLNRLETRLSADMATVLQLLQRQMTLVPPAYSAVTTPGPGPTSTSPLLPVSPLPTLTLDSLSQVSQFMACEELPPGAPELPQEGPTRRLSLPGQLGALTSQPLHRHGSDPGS

Sequence of KV7.1/KCNE1 (P51787 whole entry): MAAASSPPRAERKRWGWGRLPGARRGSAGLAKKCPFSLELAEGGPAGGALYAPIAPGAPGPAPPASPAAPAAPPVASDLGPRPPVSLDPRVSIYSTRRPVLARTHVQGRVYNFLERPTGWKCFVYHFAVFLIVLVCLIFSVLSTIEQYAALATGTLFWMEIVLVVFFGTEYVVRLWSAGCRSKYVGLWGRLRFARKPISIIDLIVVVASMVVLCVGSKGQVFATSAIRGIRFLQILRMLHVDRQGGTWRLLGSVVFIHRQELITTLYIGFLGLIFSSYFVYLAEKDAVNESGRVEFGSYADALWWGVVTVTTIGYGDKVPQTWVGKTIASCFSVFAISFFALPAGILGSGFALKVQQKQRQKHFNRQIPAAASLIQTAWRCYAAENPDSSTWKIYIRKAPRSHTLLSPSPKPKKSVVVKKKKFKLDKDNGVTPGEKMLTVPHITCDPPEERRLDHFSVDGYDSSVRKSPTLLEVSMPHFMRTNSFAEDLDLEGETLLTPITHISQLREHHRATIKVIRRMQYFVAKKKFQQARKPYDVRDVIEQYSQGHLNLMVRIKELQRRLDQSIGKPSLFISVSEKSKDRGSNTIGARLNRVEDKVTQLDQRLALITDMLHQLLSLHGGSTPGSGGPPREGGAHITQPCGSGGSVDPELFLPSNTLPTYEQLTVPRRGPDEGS

COC(=O)C(NC(=O)c1nn(CCCCCF)c2ccccc12)C(C)(C)C (stereo not shown) [5F-MDMB-PINACA, methyl 2-{[1-(5-fluoropentyl)-1H-indazole-3-carbonyl]amino}-3,3-dimethylbutanoate]
IC50 [1]: 71.4 µM
Gmax effect on hERG versus KV7.1/KCNE1 (in words) ([1]; 10 µM, both channels by APC): effects only on hERG
effect on KV7.1/KCNE1 (in words) ([1]; APC): small effect on KV7.1/KCNE1
KV7.1/KCNE1 channel Efficacy (max reduction in Gmax) Gmin ([1]; best fit, 1 = no reduction of Gmax, 0 = complete reduction): 0
IC50 [2]: 9 µM
effect on Gmax of hERG (in words) ([2]; APC concentration-response, 1.11 to 30 µM): one of the most prominent in reducing Gmax of hERG
hERG channel Efficacy (max reduction in Gmax) Gmin ([2]; best fit, 1 = no reduction of Gmax, 0 = complete reduction, APC, 22 °C): 0.00
